Experimental findings from US8513232B2, “Substituted spirocyclic piperidine derivatives as histamine-3 (H3) receptor ligands” (Cephalon, Inc., priority 2008, dated 2013) are described below.

The target of one data set is T1, human H3 receptor (Homo sapiens, UniProt Q9Y5N1).
T1 construct: expressed in transfected cells
Kind of data set: Human H3 radioligand binding ([3H]-N-alpha-methylhistamine, SPA). In short, it runs like this: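 Compounds (0.01 nM-30 μM) competed with approximately 1 nM [3H]-N-alpha-methylhistamine for human H3 receptor in membranes of stably transfected CHO cells, 10 μg protein per well, in Tris-HCl pH 7.4/MgCl2/BSA buffer for 4 h at room temperature. Bound radioligand measured by scintillation proximity; 10 μM clobenpropit gave non-specific binding.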

Data set [1] has as its target T2, rat histamine H3 receptor (Rattus norvegicus, UniProt Q9QYN8).
T2 construct: encoding the entire 445-amino-acid rat histamine H3 receptor; expressed in transfected cells; membrane preparation
Put plainly: Rat H3 radioligand binding ([3H]-N-alpha-methylhistamine, SPA). Summed up: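 SPA-bead binding assay using [3H]-N-alpha-methylhistamine (approximately 1 nM final) with test compounds from 0.01 nM to 30 μM. Rat H3 receptor membranes came from stably transfected CHO-A3 cells; incubation ran 4 h at room temperature, in the dark, in Tris pH 7.4 buffer with MgCl2 and BSA. Clobenpropit (10 μM) gave non-specific binding.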

Where [2] appears, read: Human H3 binding, Table B, Examples 136-362, read-out: hum H3 binding Ki.
[3] abbreviates: Rat H3 binding, Table B, Examples 136-362, read-out: rat H3 binding Ki.
Setting [4] is: human H3 binding, Table D, read-out: Human H3 Ki.
The mark [5] stands for this setting: rat H3 binding, Table D, read-out: Rat H3 Ki.
[6] abbreviates: Table A, human H3 binding, read-out: Human Ki.
The mark [7] stands for this setting: Table A, rat H3 binding, read-out: Rat Ki.
The mark [8] stands for this setting: Table C, human H3 binding, read-out: Human H3 Ki.
The mark [9] stands for this setting: Table C, rat H3 binding, read-out: Rat H3 Ki.

Where two headings read alike, the source gives them in different places.

T2 sequence (Q9QYN8 whole entry): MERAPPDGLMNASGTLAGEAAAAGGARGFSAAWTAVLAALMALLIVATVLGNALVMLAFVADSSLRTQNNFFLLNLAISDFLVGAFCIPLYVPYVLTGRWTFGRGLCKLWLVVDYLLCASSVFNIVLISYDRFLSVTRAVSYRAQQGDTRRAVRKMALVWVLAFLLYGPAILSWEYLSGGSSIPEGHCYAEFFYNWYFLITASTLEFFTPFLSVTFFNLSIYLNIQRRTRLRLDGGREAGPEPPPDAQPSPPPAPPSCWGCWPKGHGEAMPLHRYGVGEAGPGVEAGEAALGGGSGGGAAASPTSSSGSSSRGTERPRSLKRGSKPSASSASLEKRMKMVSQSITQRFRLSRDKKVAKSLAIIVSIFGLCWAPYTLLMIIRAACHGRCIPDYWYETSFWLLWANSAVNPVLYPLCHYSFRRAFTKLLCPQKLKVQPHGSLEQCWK
T1 sequence (Q9Y5N1 whole entry): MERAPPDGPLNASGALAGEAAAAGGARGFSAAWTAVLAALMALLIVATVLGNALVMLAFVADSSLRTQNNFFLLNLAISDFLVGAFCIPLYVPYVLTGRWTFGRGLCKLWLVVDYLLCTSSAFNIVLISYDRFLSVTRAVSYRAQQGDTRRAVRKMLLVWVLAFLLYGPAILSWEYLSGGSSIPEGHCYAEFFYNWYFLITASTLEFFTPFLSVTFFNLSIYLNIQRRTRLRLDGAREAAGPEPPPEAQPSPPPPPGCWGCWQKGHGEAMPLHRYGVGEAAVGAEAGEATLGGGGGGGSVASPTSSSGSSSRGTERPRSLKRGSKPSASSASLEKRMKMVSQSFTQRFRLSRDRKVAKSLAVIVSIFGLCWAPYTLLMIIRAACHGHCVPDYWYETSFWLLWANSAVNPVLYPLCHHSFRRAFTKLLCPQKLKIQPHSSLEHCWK

Consider `COCCNC(=O)c1ccc(-c2ccc3c(c2)COC2(CCN(C4CCC4)CC2)O3)cn1` [Example 195], for which the melting point is 113 to 114 °C. Moreover, the Ki on human H3 receptor (setting [2]) was under 0.2 µM. Besides, the Ki in data set [1] (setting [3]) was under 0.2 µM.

`CNC(=O)N1CCN(c2ccc3c(c2)COC2(CCN(C4CCC4)CC2)O3)C(=O)C1` [Example 137] displayed a melting point of 145 to 149 °C. The Ki at human H3 receptor (setting [2]) is under 0.2 µM. Moreover, the Ki in data set [1] (setting [3]) lay within 0.2 to 1 µM.

The compound `O=c1[nH]cc(-c2ccc3c(c2)COC2(CCN(C4CCC4)CC2)O3)cc1CO` [Example 773] gave a melting point of 228 to 230 °C. In addition, the Ki on human H3 receptor (setting [4]) is under 0.2 µM. In addition, the Ki in data set [1] (setting [5]) is under 0.2 µM.

`FC(F)(F)COc1cc(-c2ccc3c(c2)COC2(CCN(C4CCC4)CC2)O3)c(Cl)cn1` [Example 782]: the melting point was 119 to 121 °C. Further, the inhibitory constant (Ki) at human H3 receptor (setting [4]) is under 0.2 µM. Also, the Ki in data set [1] (setting [5]) is under 0.2 µM.

As for `NC(=O)c1ccc(-c2ccc3c(c2)COC2(CCN(C4CCC4)CC2)O3)cc1Cl` [Example 604], the melting point is 164 to 166 °C. The Ki at human H3 receptor (setting [4]) is under 0.2 µM. Moreover, the Ki in data set [1] (setting [5]) was under 0.2 µM.

In turn, `CC(C)NC(=O)c1ccc(-c2ccc3c(c2)COC2(CCN(C4CCC4)CC2)O3)cc1Cl` [Example 596] registered a melting point of 186 to 187.5 °C. Also, the Ki on human H3 receptor (setting [4]) was under 0.2 µM. Moreover, the Ki in data set [1] (setting [5]) was under 0.2 µM.

For `O=c1ccc(-c2ccc3c(c2)COC2(CCN(CC4CCOCC4)CC2)O3)c[nH]1` [Example 722], the melting point is 245 to 248 °C. In addition, the Ki on human H3 receptor (setting [4]) is 0.2 to 1 µM. Besides, in data set [1] (setting [5]), the Ki was over 1 µM.

In turn, `COc1cc(C)c(-c2ccc3c(c2)COC2(CCN(C4CCC4)CC2)O3)c(C)n1` [Example 795] came in with a melting point of 149.8 to 150.4 °C. Also, the Ki on human H3 receptor (setting [4]) was under 0.2 µM. Moreover, the Ki in data set [1] (setting [5]) was under 0.2 µM.

In turn, `OC1(c2ccc3c(c2)COC2(CCN(C4CCC4)CC2)O3)CCC2(CC1)OCCO2` [Example 492] returned a melting point of 191 to 192 °C. Besides, the Ki on human H3 receptor (read-out: Human H3 Ki) was under 0.2 µM. In data set [1] (read-out: Rat H3 kI), the Ki is under 0.2 µM.

`CC(C)n1ccc(-c2ccc3c(c2)COC2(CCN(C4CCC4)CC2)O3)cc1=O` [Example 758] came in with a melting point of 218 to 220 °C. In addition, on human H3 receptor (setting [4]), the Ki was under 0.2 µM. Moreover, in data set [1] (setting [5]), the Ki was under 0.2 µM.

`CC(C)n1cc(Cl)c(-c2ccc3c(c2)COC2(CCN(C4CCC4)CC2)O3)cc1=O` [Example 779] showed a melting point of 179 to 181 °C. Moreover, the Ki at human H3 receptor (setting [4]) is under 0.2 µM. The Ki in data set [1] (setting [5]) is under 0.2 µM.

As to `C=CCOC1(c2ccc3c(c2)COC2(CCN(C4CCC4)CC2)O3)CC(C(=O)N2CCCC2)C1` (stereo not drawn) [Example 561], the melting point was 49 to 51 °C. Also, on human H3 receptor (read-out: Human H3 Ki), the inhibition constant (Ki) fell in the range of 0.2 to 1 µM. Also, the Ki in data set [1] (read-out: Rat H3 kI) fell in the range of 0.2 to 1 µM.

In turn, `O=C(Nc1ccc2c(c1)CCC1(CCN(C3CCC3)CC1)O2)c1cnnc2ccccc12` [Example 265] displayed a melting point of 233 to 235 °C. The Ki on human H3 receptor is under 0.2 µM. The compound further returned a Ki in data set [1] of under 0.2 µM.

`O=C(N[C@H]1CCOC1)c1ccc(-c2ccc3c(c2)CCC2(CCN(C4CCC4)CC2)O3)cc1` [Example 580]: the melting point fell in the range of 196 to 198 °C. For the same compound, at human H3 receptor (setting [4]), the Ki is under 0.2 µM. For the same compound, the Ki in data set [1] (setting [5]) is under 0.2 µM.

`CNC(=O)c1ccc(Oc2ccc3c(c2)CCC2(CCN(C4CCC4)CC2)O3)cc1` [Example 282] returned a melting point of 179 to 181 °C. Further, the Ki at human H3 receptor (setting [2]) was under 0.2 µM. Also, the Ki in data set [1] (setting [3]) is under 0.2 µM.

`CNC(=O)c1cc(Oc2ccc3c(c2)CCC2(CCN(C4CCC4)CC2)O3)ccn1` [Example 281] had a melting point of 255 to 257 °C. Besides, the Ki on human H3 receptor (setting [2]) was under 0.2 µM. In addition, in data set [1] (setting [3]), the Ki was under 0.2 µM.

In turn, `CNC(=O)c1ccc(-c2ccc3c(c2)COC2(CCN(C4CCC4)CC2)O3)cc1O` [Example 704] showed a melting point of 252 to 254 °C. Also, at human H3 receptor (setting [4]), the Ki was under 0.2 µM. Also, the inhibition constant Ki in data set [1] (setting [5]) was under 0.2 µM.

As for `COC(=O)CCc1ccc2c(c1)COC1(CCN(C3CCC3)CC1)O2` [Example 630], the melting point was 66 to 68 °C. Besides, the Ki on human H3 receptor (setting [4]) is under 0.2 µM. In addition, in data set [1] (setting [5]), the Ki is under 0.2 µM.

Compound `COCCNC(=O)c1ccc(-c2ccc3c(c2)COC2(CCN(C4CCC4)CC2)O3)cc1C` [Example 255] registered a melting point of 124.6 to 126.4 °C. The Ki on human H3 receptor (setting [2]) is under 0.2 µM. Further, the Ki in data set [1] (setting [3]) is under 0.2 µM.

Take `CN(C)C(=O)C1CCCN(c2ccc3c(c2)COC2(CCN(C4CCC4)CC2)O3)C1` (stereo not drawn) [Example 612]: the melting point fell in the range of 51.2 to 54.2 °C. Also, on human H3 receptor (setting [4]), the Ki was under 0.2 µM. The Ki in data set [1] (setting [5]) is under 0.2 µM.

In turn, `O=C(N[C@H]1CCOC1)c1ccc(-c2ccc3c(c2)COC2(CCN(C4CCC4)CC2)O3)cc1` [Example 600] registered a melting point of 205 to 207 °C. Further, on human H3 receptor (setting [4]), the inhibition constant Ki was under 0.2 µM. For the same compound, the Ki in data set [1] (setting [5]) is under 0.2 µM.

For `c1cnc(Nc2ccc3c(c2)COC2(CCN(C4CCC4)CC2)O3)nc1` [Example 127], the melting point was 55 to 58 °C. Also, the Ki at human H3 receptor (setting [6]) was under 0.2 µM. Besides, in data set [1] (setting [7]), the Ki was under 0.2 µM.

The compound `c1cc(-c2ccc3c(c2)COC2(CCN(C4CCC4)CC2)O3)co1` [Example 5] registered a melting point of 150 to 152 °C. Also, the Ki on human H3 receptor (setting [6]) is under 0.2 µM. Further, the Ki in data set [1] (setting [7]) is under 0.2 µM.

The compound `Cc1cc(C(N)=O)ccc1-c1ccc2c(c1)COC1(CCN(C3CCC3)CC1)O2` [Example 693] displayed a melting point of 180 to 182 °C. In addition, on human H3 receptor (setting [4]), the Ki is under 0.2 µM. Besides, the inhibition constant Ki in data set [1] (setting [5]) was under 0.2 µM.

`c1ccc(N2CCN(c3ccc4c(c3)CCC3(CCN(C5CCC5)CC3)O4)CC2)nc1` [Example 368] displayed a melting point of 171 to 172 °C. In addition, the Ki on human H3 receptor (setting [8]) was under 0.2 µM. In addition, the Ki in data set [1] (setting [9]) is under 0.2 µM.

With `Cc1nn(C)c(C)c1-c1ccc2c(c1)COC1(CCN(C3CCC3)CC1)O2` [Example 199], the melting point was in the range of 140 to 143 °C. Also, the Ki on human H3 receptor (setting [2]) is under 0.2 µM. Besides, the Ki in data set [1] (setting [3]) was under 0.2 µM.

`CC(=O)N(Cc1cccs1)c1ccc2c(c1)COC1(CCN(C3CCC3)CC1)O2` [Example 348] displayed a melting point of 119 to 120 °C. Further, at human H3 receptor (setting [2]), the inhibitory constant (Ki) was under 0.2 µM. The inhibition constant (Ki) in data set [1] (setting [3]) was under 0.2 µM.

In turn, `CN(C)C(=O)C1CCN(c2ccc3c(c2)CCC2(CCN(C4CCC4)CC2)O3)CC1` [Example 436] had a melting point of 140 to 142 °C. In addition, the Ki at human H3 receptor (setting [8]) was under 0.2 µM. For the same compound, the inhibition constant (Ki) in data set [1] (setting [9]) was under 0.2 µM.

With `OC(c1ccc2c(c1)COC1(CCN(C3CCC3)CC1)O2)c1cncs1` (stereo not drawn) [Example 669], the melting point fell in the range of 72 to 75 °C. The inhibition constant (Ki) at human H3 receptor (setting [4]) is under 0.2 µM. Further, the Ki in data set [1] (setting [5]) is under 0.2 µM.

Compound `N#Cc1ccc(C(=O)Nc2ccc3c(c2)COC2(CCN(C4CCC4)CC2)O3)cc1` [Example 154] yielded a melting point of 206 to 208 °C. Besides, on human H3 receptor (setting [2]), the inhibitory constant (Ki) was under 0.2 µM. Also, the Ki in data set [1] (setting [3]) was under 0.2 µM.

In turn, `O[C@H]1CCN(c2ccc3c(c2)COC2(CCN(C4CCC4)CC2)O3)C1` [Example 354] yielded a melting point of 72.6 to 74.9 °C. Moreover, at human H3 receptor (setting [2]), the Ki was under 0.2 µM. Moreover, in data set [1] (setting [3]), the Ki is under 0.2 µM.

The compound `Cc1nn(C)c(C)c1-c1ccc2c(c1)CCC1(CCN(C3CCC3)CC1)O2` [Example 171] gave a melting point of 47 to 49 °C. In addition, the inhibitory constant (Ki) at human H3 receptor (setting [2]) was under 0.2 µM. For the same compound, in data set [1] (setting [3]), the inhibition constant Ki is under 0.2 µM.

In general, Ki refers to a measure of affinity in units of concentration, obtained from inhibition or displacement. For orientation: melting point means the temperature of the solid-liquid transition.
